As usually defined, the kinetic solubility is the concentration staying in solution when a stock, usually in DMSO, is diluted into the medium.

The values below come from PubChem BioAssay AID1645848.

In brackets after ≈: the same amount, converted by molar mass. Some results are limits rather than exact numbers.

For the data set the following is noted: buffer; pH 7.4; 6.0 h; 150.0 µM.

In the case of `c1coc(-c2nc3ccncc3[nH]2)c1`, the solubility (kinetic) came out at 13.9 µg/mL (≈ 75.1 µM). Then `Nc1ncc(S(=O)(=O)N2CCOCC2)s1`, with > 37 µg/mL; and `CCN(CC)S(=O)(=O)c1ccc(N2CCCC2)c(NS(=O)(=O)c2ccccc2)c1`, with < 1 µg/mL; and `COc1cccc(CNc2ccc(S(=O)(=O)Nc3nccs3)cc2)c1O`, with > 58 µg/mL.

For `NC(=O)C1CCN(c2nc(-c3cc4ccccc4o3)cs2)CC1`, the kinetic solubility was > 48 µg/mL. The figure for `Cc1ccc(OCCn2c(CCNC(=O)c3ccccc3Br)nc3ccccc32)cc1` is < 1 µg/mL; for `Cn1nc(-c2ccccc2F)c2cc(C(=O)Nc3cc(F)ccc3F)sc21` it is < 1 µg/mL; for `Fc1cc(Nc2nc(-c3ccncc3)nc3ccccc23)ccc1N1CCCCC1` it is < 1 µg/mL. The figure for `CN(c1ncccc1CNc1nc(Nc2ccc3c(c2)CC(=O)N3)ncc1C(F)(F)F)S(C)(=O)=O` is 51.7 µg/mL (≈ 102 µM).

Take `Cc1ccc(-n2c(C)cc(C3=NNC(=NC4CC4)SC3)c2C)cc1C`: the kinetic solubility worked out at 2.55 µg/mL (≈ 7.23 µM).

`CCc1ccc(NC(=O)c2[nH]c(C)c(C(C)=O)c2C)cc1S(=O)(=O)Nc1ccc(Br)cc1`: the solubility (kinetic) worked out at 7.72 µg/mL (≈ 14.9 µM). Then `Cc1cccc2c1NC(=O)/C2=C/c1cc(Cl)c(O)c(Cl)c1`, with 10.1 µg/mL (≈ 31.5 µM); and `CC1=NN(c2ccc(C(=O)O)cc2)C(=O)/C1=C/c1ccc(-c2cc(C)c(C)cc2[N+](=O)[O-])o1`, with 1.01 µg/mL (≈ 2.26 µM). As to `O=C(Nc1nc(-c2ccccc2)cs1)c1ccncc1NS(=O)(=O)c1ccc(F)cc1Cl`, the kinetic solubility is < 1 µg/mL. Then `CC(C)Nc1oc(-c2cccc3ccccc23)nc1C#N`, with < 1 µg/mL. For the compound `CSc1nn(Cc2cccc(C)c2)c(N)c1S(=O)(=O)c1ccccc1`, the kinetic solubility is < 1 µg/mL.

Turning to `NC1CCC(Nc2nc(Nc3ccc(C(=O)N4CCCCC4)cc3)c3ncn(-c4cccc(F)c4)c3n2)CC1` (stereo not given), the solubility (kinetic) came to 57.5 µg/mL (≈ 109 µM).

As to `COCCn1ccc2c(C3=CCOCC3)nc(-c3ccc4c(c3)CNC4=O)cc21`, the kinetic solubility was > 86 µg/mL. For `O=C(Nc1ccc(Cl)c(S(=O)(=O)N2CCOCC2)c1)c1ccc(S(=O)(=O)N2CCCCC2)cc1`, the solubility (kinetic) is < 1 µg/mL.

Turning to `CCN1CCCC1CNC(=O)c1cc(S(=O)(=O)CC)c(N)cc1OC` (stereo not given), the kinetic solubility turned out to be 36.2 µg/mL (≈ 98.1 µM).

On to `CC1(C)C(=O)NC2=C1C(=O)C(=O)c1ccccc12`, for which the solubility (kinetic) is > 36 µg/mL. Compound `COc1ccccc1Nc1ccnc(N2CCN(C(=O)c3ccc(F)cc3)CC2)n1` returned a kinetic solubility of 10.8 µg/mL (≈ 26.5 µM). In the case of `Cc1ccc(S(=O)(=O)Nc2ccccc2C(=O)Nc2ncc(-c3ccccc3)o2)cc1`, the kinetic solubility is < 1 µg/mL. Consider `COc1ccc2cc1Oc1ccc(cc1)C[C@@H]1c3c(cc(OC)c4c3Oc3cc5c(cc3O4)CCN[C@H]5C2)CCN1C`, for which the solubility (kinetic) was < 1 µg/mL. In turn, `O=C(NC1CCCN(c2cc(-c3ccc(F)cc3)[nH]n2)C1)c1ccc2ncccc2c1` (stereo not given) returned a kinetic solubility of 12.5 µg/mL (≈ 30.2 µM). The figure for `COc1ccc(-c2[nH]nc3ncc(-c4ccc(CO)cc4)nc23)cc1F` is < 1 µg/mL. The figure for `Cc1ccc(CNc2ccccc2C(=O)Nc2nc(-c3ccccc3)cs2)cc1` is < 1 µg/mL; for `CCCCCCN(CCCCCC)C(=O)Cc1c(-c2ccc(F)cc2)[nH]c2ccccc12` it is < 1 µg/mL. In the case of `O=C(Nc1ccc(OC(F)(F)F)cc1)c1sccc1NCc1ccnc2ccccc12`, the kinetic solubility is < 1 µg/mL. For the compound `O=C(NC1CC1)c1ccc(CSCc2ccccc2Cl)o1`, the kinetic solubility is > 47 µg/mL.

As to `Cc1ccc(S(=O)(=O)Nc2ccccc2CNc2nc(-c3ccccc3)cs2)cc1`, the solubility (kinetic) was < 1 µg/mL. Then `O=[N+]([O-])c1ccc(-c2nc(Nc3ccc(F)c(F)c3)c3ccccc3n2)cc1`, with < 1 µg/mL; and `NC(=O)C1CCN(c2nc(-c3cccc(Br)c3)cs2)CC1`, with 20.5 µg/mL (≈ 55.9 µM). Then `Cc1ccc(S(=O)(=O)Nc2cc(Cl)cc(C(=O)Nc3nc(-c4ccccc4)cs3)c2)cc1`, with < 1 µg/mL; and `Cc1ccccc1CSc1nc2ncc(Br)cc2[nH]1`, with < 1 µg/mL.
